Reference: PubChem BioAssay AID2060908 (Molecular Pharmacology Branch, DTP, NCI, 2025)
Blank lines part the entries; values can stand above or below the compound they belong to.

Tested on: 186277-243-T-J2-PDC complex spheroids, viability
Assay: Anticancer human tumor 186277-243-T-J2-PDC patient-derived colon adenocarcinoma cell line growth inhibition [RAS]
Conditions: for IC50: curve of first compound; for viability, T/C: stronger effect = lower value
Summary of the method: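 Multi-cell-type spheroids: tumor cells plus HUVEC endothelial cells and mesenchymal stem cells. RAS-pathway inhibitors were combined with targeted agents, each dosed in half-log steps down from clinical Cmax, or from 10 microM when Cmax was unknown.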
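Further: spheroids exposed to compounds for 7 days before viability read.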

IC50 (second compound 0.0316 µM): 0.57 µM
IC50 (second compound 0.1 µM): 0.104 µM
IC50 (second compound 0.316 µM): < 0.0316 µM
IC50 (second compound 1 µM): < 0.0316 µM
IC50 (second compound 3.16 µM): < 0.0316 µM
IC50 (second compound 10 µM): < 0.0316 µM
Structure (SMILES): CC1(O)CCCC1n1c(=O)c(C(F)F)cc2cnc(NC3CCN(S(C)(=O)=O)CC3)nc21 (stereo unspecified) + C#Cc1c(F)ccc2cc(O)cc(-c3ncc4c(N5CC6CCC(C5)N6)nc(OCC56CCCN5CC(F)C6)nc4c3F)c12
viability, T/C (second compound 0.0316 µM, first compound 0.0316 µM): 71.2%
viability, T/C (second compound 0.0316 µM, first compound 0.1 µM): 69.4%
viability, T/C (second compound 0.0316 µM, first compound 0.316 µM): 47.3%
viability, T/C (second compound 0.0316 µM, first compound 1 µM): 43.7%
viability, T/C (second compound 0.0316 µM, first compound 3.16 µM): 33.4%
viability, T/C (second compound 0.0316 µM, first compound 10 µM): 1.2%
viability, T/C (second compound 0.1 µM, first compound 0.0316 µM): 65.4%
viability, T/C (second compound 0.1 µM, first compound 0.1 µM): 50.3%
viability, T/C (second compound 0.1 µM, first compound 0.316 µM): 31.8%
viability, T/C (second compound 0.1 µM, first compound 1 µM): 27.8%
viability, T/C (second compound 0.1 µM, first compound 3.16 µM): 20.9%
viability, T/C (second compound 0.1 µM, first compound 10 µM): 0.42%
viability, T/C (second compound 0.316 µM, first compound 0.0316 µM): 23.6%
viability, T/C (second compound 0.316 µM, first compound 0.1 µM): 23.3%
viability, T/C (second compound 0.316 µM, first compound 0.316 µM): 17%
viability, T/C (second compound 0.316 µM, first compound 1 µM): 16.9%
viability, T/C (second compound 0.316 µM, first compound 3.16 µM): 11.4%
viability, T/C (second compound 0.316 µM, first compound 10 µM): 0.33%
viability, T/C (second compound 1 µM, first compound 0.0316 µM): 15.6%
viability, T/C (second compound 1 µM, first compound 0.1 µM): 13.1%
viability, T/C (second compound 1 µM, first compound 0.316 µM): 10%
viability, T/C (second compound 1 µM, first compound 1 µM): 12.4%
viability, T/C (second compound 1 µM, first compound 3.16 µM): 10.8%
viability, T/C (second compound 1 µM, first compound 10 µM): 0.24%
viability, T/C (second compound 3.16 µM, first compound 0.0316 µM): 11.4%
viability, T/C (second compound 3.16 µM, first compound 0.1 µM): 12.1%
viability, T/C (second compound 3.16 µM, first compound 0.316 µM): 9.69%
viability, T/C (second compound 3.16 µM, first compound 1 µM): 8.93%
viability, T/C (second compound 3.16 µM, first compound 3.16 µM): 9.39%
viability, T/C (second compound 3.16 µM, first compound 10 µM): 0.27%
viability, T/C (second compound 10 µM, first compound 0.0316 µM): 9.74%
viability, T/C (second compound 10 µM, first compound 0.1 µM): 8.08%
viability, T/C (second compound 10 µM, first compound 0.316 µM): 9.05%
viability, T/C (second compound 10 µM, first compound 1 µM): 8.95%
viability, T/C (second compound 10 µM, first compound 3.16 µM): 8.58%
viability, T/C (second compound 10 µM, first compound 10 µM): 0.36%

IC50 (second compound 0.000949 µM): 0.00527 µM
IC50 (second compound 0.003 µM): 0.00196 µM
IC50 (second compound 0.00949 µM): < 0.000949 µM
IC50 (second compound 0.03 µM): < 0.000949 µM
IC50 (second compound 0.0949 µM): < 0.000949 µM
IC50 (second compound 0.3 µM): < 0.000949 µM
Structure (SMILES): CCc1c2c(nc3ccc(O)cc13)-c1cc3c(c(=O)n1C2)COC(=O)[C@]3(O)CC + CCn1c(-c2cc(N3CCN(C)CC3)cnc2C(C)OC)c2c3cc(ccc31)-c1csc(n1)CC(NC(=O)C1CC1C)C(=O)N1CCCC(N1)C(=O)OCC(C)(C)C2
viability, T/C (second compound 0.000949 µM, first compound 0.000949 µM): 113%
viability, T/C (second compound 0.000949 µM, first compound 0.003 µM): 58.7%
viability, T/C (second compound 0.000949 µM, first compound 0.00949 µM): 39.5%
viability, T/C (second compound 0.000949 µM, first compound 0.03 µM): 23.4%
viability, T/C (second compound 0.000949 µM, first compound 0.0949 µM): 9.6%
viability, T/C (second compound 0.000949 µM, first compound 0.3 µM): 6.83%
viability, T/C (second compound 0.003 µM, first compound 0.000949 µM): 69.5%
viability, T/C (second compound 0.003 µM, first compound 0.003 µM): 37.6%
viability, T/C (second compound 0.003 µM, first compound 0.00949 µM): 22.2%
viability, T/C (second compound 0.003 µM, first compound 0.03 µM): 13.2%
viability, T/C (second compound 0.003 µM, first compound 0.0949 µM): 5.72%
viability, T/C (second compound 0.003 µM, first compound 0.3 µM): 4.11%
viability, T/C (second compound 0.00949 µM, first compound 0.000949 µM): 18.6%
viability, T/C (second compound 0.00949 µM, first compound 0.003 µM): 10.9%
viability, T/C (second compound 0.00949 µM, first compound 0.00949 µM): 9.28%
viability, T/C (second compound 0.00949 µM, first compound 0.03 µM): 6.45%
viability, T/C (second compound 0.00949 µM, first compound 0.0949 µM): 3.6%
viability, T/C (second compound 0.00949 µM, first compound 0.3 µM): 2.17%
viability, T/C (second compound 0.03 µM, first compound 0.000949 µM): 9.49%
viability, T/C (second compound 0.03 µM, first compound 0.003 µM): 6.27%
viability, T/C (second compound 0.03 µM, first compound 0.00949 µM): 5.72%
viability, T/C (second compound 0.03 µM, first compound 0.03 µM): 4.05%
viability, T/C (second compound 0.03 µM, first compound 0.0949 µM): 2.52%
viability, T/C (second compound 0.03 µM, first compound 0.3 µM): 1.56%
viability, T/C (second compound 0.0949 µM, first compound 0.000949 µM): 5.21%
viability, T/C (second compound 0.0949 µM, first compound 0.003 µM): 4.44%
viability, T/C (second compound 0.0949 µM, first compound 0.00949 µM): 4.37%
viability, T/C (second compound 0.0949 µM, first compound 0.03 µM): 2.94%
viability, T/C (second compound 0.0949 µM, first compound 0.0949 µM): 2.29%
viability, T/C (second compound 0.0949 µM, first compound 0.3 µM): 1.3%
viability, T/C (second compound 0.3 µM, first compound 0.000949 µM): 4.39%
viability, T/C (second compound 0.3 µM, first compound 0.003 µM): 3.92%
viability, T/C (second compound 0.3 µM, first compound 0.00949 µM): 3.85%
viability, T/C (second compound 0.3 µM, first compound 0.03 µM): 2.91%
viability, T/C (second compound 0.3 µM, first compound 0.0949 µM): 2.37%
viability, T/C (second compound 0.3 µM, first compound 0.3 µM): 1.27%

IC50 (second compound 0.00316 µM): 0.018 µM
IC50 (second compound 0.01 µM): 0.0154 µM
IC50 (second compound 0.0316 µM): 0.0289 µM
IC50 (second compound 0.1 µM): 0.0226 µM
IC50 (second compound 0.316 µM): 0.0262 µM
IC50 (second compound 1 µM): 0.0275 µM
Structure (SMILES): CCc1c2c(nc3ccc(O)cc13)-c1cc3c(c(=O)n1C2)COC(=O)[C@]3(O)CC + C=CC(=O)N1CCN(c2nc(OCC3CCCN3C)nc3c(F)c(-c4nc(N)cc(C)c4C(F)(F)F)c(Cl)cc23)C(C)C1
viability, T/C (second compound 0.00316 µM, first compound 0.000949 µM): 115%
viability, T/C (second compound 0.00316 µM, first compound 0.003 µM): 94.9%
viability, T/C (second compound 0.00316 µM, first compound 0.00949 µM): 61.3%
viability, T/C (second compound 0.00316 µM, first compound 0.03 µM): 40.9%
viability, T/C (second compound 0.00316 µM, first compound 0.0949 µM): 22.4%
viability, T/C (second compound 0.00316 µM, first compound 0.3 µM): 14.9%
viability, T/C (second compound 0.01 µM, first compound 0.000949 µM): 120%
viability, T/C (second compound 0.01 µM, first compound 0.003 µM): 87.5%
viability, T/C (second compound 0.01 µM, first compound 0.00949 µM): 55%
viability, T/C (second compound 0.01 µM, first compound 0.03 µM): 40.1%
viability, T/C (second compound 0.01 µM, first compound 0.0949 µM): 25.7%
viability, T/C (second compound 0.01 µM, first compound 0.3 µM): 14.2%
viability, T/C (second compound 0.0316 µM, first compound 0.000949 µM): 110%
viability, T/C (second compound 0.0316 µM, first compound 0.003 µM): 95.6%
viability, T/C (second compound 0.0316 µM, first compound 0.00949 µM): 68.7%
viability, T/C (second compound 0.0316 µM, first compound 0.03 µM): 56.6%
viability, T/C (second compound 0.0316 µM, first compound 0.0949 µM): 21.8%
viability, T/C (second compound 0.0316 µM, first compound 0.3 µM): 15.6%
viability, T/C (second compound 0.1 µM, first compound 0.000949 µM): 109%
viability, T/C (second compound 0.1 µM, first compound 0.003 µM): 98.1%
viability, T/C (second compound 0.1 µM, first compound 0.00949 µM): 68.7%
viability, T/C (second compound 0.1 µM, first compound 0.03 µM): 46%
viability, T/C (second compound 0.1 µM, first compound 0.0949 µM): 20.3%
viability, T/C (second compound 0.1 µM, first compound 0.3 µM): 13.7%
viability, T/C (second compound 0.316 µM, first compound 0.000949 µM): 89.2%
viability, T/C (second compound 0.316 µM, first compound 0.003 µM): 91.9%
viability, T/C (second compound 0.316 µM, first compound 0.00949 µM): 65.5%
viability, T/C (second compound 0.316 µM, first compound 0.03 µM): 51%
viability, T/C (second compound 0.316 µM, first compound 0.0949 µM): 24.5%
viability, T/C (second compound 0.316 µM, first compound 0.3 µM): 17.4%
viability, T/C (second compound 1 µM, first compound 0.000949 µM): 93.2%
viability, T/C (second compound 1 µM, first compound 0.003 µM): 76.1%
viability, T/C (second compound 1 µM, first compound 0.00949 µM): 73%
viability, T/C (second compound 1 µM, first compound 0.03 µM): 47.1%
viability, T/C (second compound 1 µM, first compound 0.0949 µM): 29%
viability, T/C (second compound 1 µM, first compound 0.3 µM): 17.5%
